Tests used:
[1] = target: T1, KRas^G12D (Homo sapiens, UniProt P01116, G12D); experiment: KRas binding assay (TR-FRET tracer displacement), KRas G12D
T1 construct: Biotinylated KRas (corresponding to amino acids 1-169, produced at Accelegan Inc.); biotin (biotinylated); purchased Accelegan Inc

[2] = target: T2, KRas^G12R (Homo sapiens, UniProt P01116, G12R); experiment: KRas binding assay (TR-FRET tracer displacement), KRas G12R
T2 construct: Biotinylated KRas (corresponding to amino acids 1-169, produced at Accelegan Inc.); biotin (biotinylated); purchased Accelegan Inc

[3] = target: T3, KRas^G12V (Homo sapiens, UniProt P01116, G12V); experiment: KRas binding assay (TR-FRET tracer displacement), KRas G12V
T3 construct: Biotinylated KRas (corresponding to amino acids 1-169, produced at Accelegan Inc.); biotin (biotinylated); purchased Accelegan Inc

[4] = tested on: KRas-mediated phosphorylation of ERK in MKN1 cells; experiment: Inhibition of KRas-mediated phosphorylation of ERK (Cisbio HTRF pERK), MKN1 cells; format: cell-based; details: Homo sapiens, MKN-1
Procedure, shortened: (§1)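 Phospho-ERK is quantified by HTRF with the Advanced pERK kit. Cells go in at 6,000/well in RPMI plus 10% FBS overnight at 37° C. under 5% CO2, with a 4-hour covered room-temperature incubation ahead of the read.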

[5] = tested on: KRas-mediated phosphorylation of ERK in PSN1 cells; experiment: Inhibition of KRas-mediated phosphorylation of ERK (Cisbio HTRF pERK), PSN1 cells; format: cell-based; details: Homo sapiens
Procedure, shortened: as §1

[6] = tested on: KRas-mediated phosphorylation of ERK in AsPC-1 cells; experiment: Inhibition of KRas-mediated phosphorylation of ERK (Cisbio HTRF pERK), AsPC-1 cells; format: cell-based; details: Homo sapiens, ASPC1, AsPC-1 cells; HTRF pERK
Procedure, shortened: (§2)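 6,000 cells/well; cpd 10 uM top, 3-fold x10, 0.8% DMSO final; 3 hr incubation; Min ctrl Trametinib 0.2 uM; lysis 40 min 4° C shaking; d2 + Cryptate Ab mix, 2 hr RT; HTRF read.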

[7] = tested on: KRas-mediated phosphorylation of ERK in H727 cells; experiment: Inhibition of KRas-mediated phosphorylation of ERK (Cisbio HTRF pERK), H727 cells; format: cell-based; details: Homo sapiens, NCI-H727, H727 cells; HTRF pERK
Procedure, shortened: as §2

[8] = tested on: KRas-mediated phosphorylation of ERK in A549 cells; experiment: Inhibition of KRas-mediated phosphorylation of ERK (Cisbio HTRF pERK), A549 cells; format: cell-based; details: Homo sapiens; for IC50: HTRF pERK
Procedure, shortened: (§3)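 HTRF readout of phospho-ERK in cell lysates after 3 hrs of compound exposure. Dosing: 10 uM top, 3-fold steps, 10 doses, final DMSO 0.8%. Min control: 0.2 uM Trametinib. Lysis ran 40 mins at 4° C, and antibody detection 2 hrs at room temperature.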

[9] = tested on: KRas-mediated phosphorylation of ERK in H460 cells; experiment: Inhibition of KRas-mediated phosphorylation of ERK (Cisbio HTRF pERK), H460 cells; format: cell-based; details: Homo sapiens; for IC50: NCI-H460, HTRF pERK
Procedure, shortened: as §2

[10] = tested on: KRas-mediated phosphorylation of ERK in HCT116 cells; experiment: Inhibition of KRas-mediated phosphorylation of ERK (Cisbio HTRF pERK), HCT116 cells; format: cell-based; details: Homo sapiens; for IC50: HCT-116, HTRF pERK
Procedure, shortened: as §3

[11] = tested on: KRas-mediated phosphorylation of ERK in H358 cells; experiment: Inhibition of KRas-mediated phosphorylation of ERK (Cisbio HTRF pERK), H358 cells; format: cell-based; details: Homo sapiens; for IC50: NCI-H358, HTRF pERK
Procedure, shortened: as §2

T1 sequence (P01116 1-169 isoform P01116-2 G12D): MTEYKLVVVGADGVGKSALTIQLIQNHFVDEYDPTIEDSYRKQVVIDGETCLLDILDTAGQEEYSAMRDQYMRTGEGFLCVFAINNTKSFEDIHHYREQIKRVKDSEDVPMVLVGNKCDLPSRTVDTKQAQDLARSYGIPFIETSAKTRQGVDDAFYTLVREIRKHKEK
T2 sequence (P01116 1-169 isoform P01116-2 G12R): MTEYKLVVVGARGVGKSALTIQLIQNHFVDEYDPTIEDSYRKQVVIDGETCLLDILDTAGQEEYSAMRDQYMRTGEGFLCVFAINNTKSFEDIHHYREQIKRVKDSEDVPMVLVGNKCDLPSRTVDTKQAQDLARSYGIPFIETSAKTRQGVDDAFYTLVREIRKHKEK
T3 sequence (P01116 1-169 isoform P01116-2 G12V): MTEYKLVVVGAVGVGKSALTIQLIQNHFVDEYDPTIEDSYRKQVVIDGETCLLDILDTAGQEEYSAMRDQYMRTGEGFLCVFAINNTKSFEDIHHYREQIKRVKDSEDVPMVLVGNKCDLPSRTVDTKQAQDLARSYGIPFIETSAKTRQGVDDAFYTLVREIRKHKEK

| SMILES | IC50 [1] [nM] | IC50 [2] [nM] | IC50 [3] [nM] | IC50 [4] [nM] | IC50 [5] [nM] | IC50 [6] [nM] | IC50 [7] [nM] | IC50 [8] [nM] | IC50 [9] [nM] | IC50 [10] [nM] | IC50 [11] [nM] | inhibition at 0.1 µM ([8]; A549, 3 h, single point, 100 nM compound, 3 hrs) [%] | inhibition at 0.1 µM ([9]; NCI-H460, 3 h, single point, 100 nM compound, 3 hrs) [%] | inhibition at 0.1 µM ([10]; HCT-116, 3 h, single point, 100 nM compound, 3 hrs) [%] | inhibition at 0.1 µM ([11]; NCI-H358, 3 h, single point, 100 nM compound, 3 hrs) [%] |
| --- | --- | --- | --- | --- | --- | --- | --- | --- | --- | --- | --- | --- | --- | --- | --- |
| C[C@@]1(O)CCCN(c2nc(OC[C@@]34CCCN3C[C@H](F)C4)nc3c(F)c(-c4ccc(F)c5sc(N)c(C#N)c45)ncc23)C1 [Example 912, 2-amino-7-fluoro-4-(8-fluoro-2-(((2R,7aS)-2-fluorotetrahydro-1H-pyrrolizin-7a(5H)-yl)methoxy)-4-((R)-3-hydroxy-3-methylpiperidin-1-yl)pyrido[4,3-d]pyrimidin-7-yl)benzo[b]thiophene-3-carbonitrile] | 45 | 85 | 69 | 504 | > 10000 | 2310 | 3310 | 2820 | 2050 | 1830 | 800 | – | – | – | – |
| C[C@@H]1C[C@@H]1c1c(Cl)cc2[nH]ncc2c1-c1ncc2c(N3CCC[C@]4(C3)NC(=O)NC4=O)nc(OCC34CCCN3CCC4)nc2c1F (atropisomer, axis not shown) [Example 887, (R)-7-(7-((R)-6-chloro-5-((1S,2R)-2-methylcyclopropyl)-1H-indazol-4-yl)-8-fluoro-2-((tetrahydro-1H-pyrrolizin-7a(5H)-yl)methoxy)pyrido[4,3-d]pyrimidin-4-yl)-1,3,7-triazaspiro[4.5]decane-2,4-dione] | 5 | 2 | 3 | 1240 | > 10000 | > 10000 | > 10000 | > 10000 | 7040 | > 10000 | 2540 | – | – | – | – |
| CCc1c(F)ccc2cc(O)cc(-c3ncc4c(N5C[C@H]6C[C@@H](C5)C(O)C6O)nc(OC[C@@]56CCCN5C[C@H](F)C6)nc4c3F)c12 (single isomer, unassigned) [Example 570] | 12 | < 2 | 3 | 56 | > 10000 | 1770 | 280 | 542 | – | – | – | 26 | 38 | 26 | 69 |
| CCc1c(F)ccc2cc(O)cc(-c3ncc4c(N5CC6CCC(COCCO)(C6)C5)nc(OC[C@@]56CCCN5C[C@H](F)C6)nc4c3F)c12 (stereo partly drawn) [Example 840, 5-ethyl-6-fluoro-4-(8-fluoro-2-(((2R,7aS)-2-fluorotetrahydro-1H-pyrrolizin-7a(5H)-yl)methoxy)-4-(1-((2-hydroxyethoxy)methyl)-3-azabicyclo[3.2.1]octan-3-yl)pyrido[4,3-d]pyrimidin-7-yl)naphthalen-2-ol] | 9 | 7 | 4 | 38 | > 10000 | 575 | 299 | 422 | 145 | 239 | 180 | – | – | – | – |
| C=C1[C@@H]2CC[C@H]1CN(c1nc(OC[C@@]34CCCN3C[C@H](F)C4)nc3c(F)c(-c4cc(O)cc5ccc(F)c(CC)c45)ncc13)C2 [Example 849, 5-ethyl-6-fluoro-4-(8-fluoro-2-(((2R,7aS)-2-fluorotetrahydro-1H-pyrrolizin-7a(5H)-yl)methoxy)-4-((1R,5S)-8-methylene-3-azabicyclo[3.2.1]octan-3-yl)pyrido[4,3-d]pyrimidin-7-yl)naphthalen-2-ol] | 65 | 24 | 9 | 189 | > 10000 | 3090 | 1000 | 1270 | 802 | 1780 | 286 | – | – | – | – |
